Laboratory results from patent US20250073348A1, “CAMPTOTHECIN CONJUGATES” (priority 2018, published 2025).

How the values were obtained:
[1] = system: DEL-BVR (DEL brentuximab vedotin resistant line); experiment: In vitro cytotoxicity on MDR+ line, CellTiter-Glo, 96 h; assay type: cell-based; conditions: Table 6
Procedure: (§1) In vitro potency was assessed on multiple cancer cell lines. All cell lines were authenticated by STR profiling at IDEXX Bioresearch and cultured for no more than 2 months after resuscitation. Cells cultured in log-phase growth were seeded for 24 hours in 96-well plates containing 150 μl RPMI 1640 supplemented with 20% FBS. Serial dilutions of antibody-drug conjugates in cell culture media were prepared at 4× working concentrations, and 50 μl of each dilution was added to the 96-well plates. Following addition of test articles, cells were incubated with test articles for 4 days at 37° C. After 96 hours, growth inhibition was assessed by CellTiter-Glo® (Promega, Madison, WI) and luminescence was measured on a plate reader. The EC50 value, determined in triplicate, is defined here as the concentration that results in 50% reduction in cell growth relative to untreated controls.
(§2) In the following Tables IC50 values for ADCs and CPT free drugs are given in ng/mL and […] concentrations, respectively, with parenthetic values representing percent cells remaining at the highest concentration tested (1000 ng/mL for ADCs and 1 μM for CPT free compound, unless otherwise indicated) relative to untreated cells. Cell viability was determined by CellTiter-Glo staining after 96 h exposure to ADC. ND=Not Determined. […]

[2] = system: DEL; experiment: In vitro cytotoxicity, CellTiter-Glo, 96 h; assay type: cell-based; conditions: Table 6
Procedure: as §1, §2

[3] = 1000 ng/mL, relative to untreated cells

## Ag2-vcMMAE (8): vcMMAE conjugate on Ag2; "Ag2 refers to cAC10, which targets the CD30 antigen"
[1]; [3]
  percent cells remaining at the highest dose tested, DEL/BVR: 93%
[1]; Ag2(+), MDR(+) DEL-BVR, 96 h
  IC50 DEL/BVR: >1 µg/mL
[2]; [3]
  percent cells remaining at the highest dose tested, DEL: 1%
[2]; Ag2(+) parental DEL, 96 h
  IC50 DEL: 0.0005 µg/mL
